From patent publication US8865672B2, “Prevention of tissue ischemia and related methods” (The United States of America, as represented by the …, priority 2006, dated 2014)

How the values were obtained:
murine ASMC (CD47 null) = test: Murine ASMC proliferation; assay type: cell-based, mouse; details: CD47 null MASMC
Procedure: Murine ASMC were obtained from aortic segments harvested sterilely from C57B1/6 CD47 null or CD36 null mice as described (Ray et al., Methods Cell Sci 23:185-188, 2001) and cultured in SM-GM (Cambrex)+20% FCS. In the case of CD36 null cells, culture flasks were pre-coated with 1% gelatin prior to cell plating. Wild type C57B1/6 ASMC cultures were prepared as previously described (Isenberg et al., Matrix Biol 24:110-123, 2005). Cell culture purity was determined by immunohistochemistry staining for α-smooth muscle actin. Cells were used within passage 1 to 4 to minimize overgrowth of other cell types.
Proliferation of vascular cells was measured with a non-radioactive colorimetric assay (CellTiter 96, Promega, Madison, Wis.). Briefly, to each well of a 96-well culture plate (Nunc, Denmark) 5×10^3 cells were suspended in 100 μl of culture medium with indicated treatments and incubated for 72 hours at 37° C. in a 5% CO2 atmosphere. Following incubation 20 μl of tetrazolium compound/solubilization agent was added and incubation continued for 4 hours under the same conditions. The plate was then read on a MR580 Microelisa Auto Reader (Dynatech) at a wavelength of 490 nm. Appropriate zero time controls were run for all assays and the optical density readings obtained then subtracted from those obtained at 72 hours.

[1] = test system: murine ASMC (WT, CD36 null, CD47 null); test: Intracellular cGMP in murine ASMC; assay type: cell-based, mouse
Method in brief: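 Aortic smooth muscle cells from wild-type C57Bl/6, CD36-null or CD47-null mice, passage 1–4, plated overnight in full growth medium. Weaned to SM-GM + 0.1% BSA before treatment with NO donor and other agents. Intracellular cGMP measured by enzyme immunoassay.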

[2] = test system: murine aortic VSMC (WT, TSP1 null, CD47 null); test: 3D collagen gel contraction assay, murine VSMC; assay type: cell-based, mouse; details: for relaxation of pre-contracted VSMC by NO: TSP1 2.2 nM
Procedure: Type I collagen gel (3 mg/ml) with 10×M199 (Gibco, Grand Island, N.Y.) at a 10:1 ratio of collagen to medium was prepared, pH balanced with NaOH and seeded with either HAVSMC or VSMC harvested from aortic segments from C57B16 WT or TSP1 null mice (50,000 cells in 75 μl of gel/well) and aliquoted to 96-well plates (Nunc, Denmark). Plates were incubated for 12 h 37° C. and 5% CO2 allowing for gelation and cell spreading, gently released from the well walls and incubated in serum and additive deficient growth medium with 0.1% BSA in the presence of the indicated treatment agents for 10 h. Contraction was determined by measuring the diameter in perpendicular planes (x, y) of each disk, an average obtained and surface area calculated as (d/2)^2π. Experiments were performed in triplicate. Results represent the mean±SD of at least three separate experiments.
Collagen gel contraction assays were performed using murine derived VSMC (7.5×10^4 cells/gel) as described (Isenberg et al., Blood 2006; Example 2). Wells receiving TSP1 were pre-incubated with the indicated concentrations of agent overnight. Contraction was initiated with either 10% FCS or sphingosine 1-phosphate (S1P, 100 nM).

cGK-I = target: T1, cGK-I (Homo sapiens, UniProt Q13976); test: cGK in vitro kinase assay of platelet lysates; assay type: biochemical
T1 construct: endogenous in cells; host or cells: washed human platelets, treated intact, then lysed
T1 sequence (Q13976 1-686 isoform Q13976-2): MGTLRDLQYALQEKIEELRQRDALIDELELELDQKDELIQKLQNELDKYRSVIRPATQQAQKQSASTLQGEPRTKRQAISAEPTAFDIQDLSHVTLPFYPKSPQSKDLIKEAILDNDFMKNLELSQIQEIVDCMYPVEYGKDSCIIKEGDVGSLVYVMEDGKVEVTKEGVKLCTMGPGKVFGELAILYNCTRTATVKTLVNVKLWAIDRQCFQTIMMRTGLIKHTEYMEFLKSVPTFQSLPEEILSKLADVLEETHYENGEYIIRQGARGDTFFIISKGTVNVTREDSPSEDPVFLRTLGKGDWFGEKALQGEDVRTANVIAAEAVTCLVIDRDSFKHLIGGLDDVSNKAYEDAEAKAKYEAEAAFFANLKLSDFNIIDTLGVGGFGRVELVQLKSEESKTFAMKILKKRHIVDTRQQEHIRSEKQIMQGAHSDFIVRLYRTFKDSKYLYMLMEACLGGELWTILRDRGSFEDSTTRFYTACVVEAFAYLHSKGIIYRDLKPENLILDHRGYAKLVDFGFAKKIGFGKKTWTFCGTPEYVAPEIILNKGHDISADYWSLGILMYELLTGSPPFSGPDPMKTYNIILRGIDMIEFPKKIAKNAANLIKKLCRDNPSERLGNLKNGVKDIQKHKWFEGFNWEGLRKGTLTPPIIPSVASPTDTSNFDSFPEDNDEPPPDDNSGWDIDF
Procedure: Platelets were washed as described above and resuspended in Tyrode's buffer (3×10^8 platelets/mL). Platelets were preincubated with TSP1 (2.2 nM) or Rp-8-pCPT-cGMP for 15 minutes prior to treatment with 8-Br-cGMP (100 μM) or NO (DEA/NO 10 μM) for 2 minutes. Treatment was stopped by placing the platelets on ice. Immediately following treatment, platelets were pelleted by centrifugation at 13,000×g at 4° C. for 15 seconds and resuspended in a lysis buffer containing 10 mM HEPES (pH 7.4), 1 mM EDTA, 1 mM 3-Isobutyl-1-methylxanthine, 125 mM KCl, 1 mM phenylmethysulfonylfluoride, 1 μg/ml aprotinin, and 1 μg/ml leupeptin. Resuspended platelets were sonicated on ice 3 times for 10 seconds each before centrifugation at 13,000×g for 5 minutes at 4° C. 100 μg lysate from each sample was incubated at 25° C. for 20 minutes with kinase buffer (150 μM Arg-Lys-Arg-Ser-Arg-Ala-Glu (SEQ ID NO: 17) peptide substrate (Bachem, King of Prussia, Pa.)), 10 mM HEPES pH 7.4, 35 mM β-glycerophosphate, 4 mM MgCl2, 5 μM Rp-8 pCPT-cAMPS, 0.5 mM EDTA, […] [γ-32P]ATPS (Sigma-Aldrich, St. Louis, Mo.)). Kinase assay reactions were terminated by spotting 50 μL of reaction mixture onto nitrocellulose. Nitrocellulose spots were washed 5 times each with 100 μL of 0.5% phosphoric acid before analysis with a scintillation counter.

32P-incorporation into cGK-I selective peptide (cGK-I; activation via sGC using DEA/NO in intact platelets): prevented
32P incorporation into cGK-I selective peptide (cGK-I; stimulated by 100 μM 8Br-cGMP, TSP1 2.2 nM): inhibited 32P incorporation
Substance: TSP1: thrombospondin-1 prepared from human platelets
NO-stimulated proliferation (murine ASMC (CD47 null)): did not inhibit
NO-stimulated cGMP ([1]; CD36 null MASMC): completely inhibited
NO-stimulated cGMP ([1]; CD47 null MASMC): did not significantly inhibit
NO-stimulated cGMP ([1]; WT MASMC): inhibited
relaxation of pre-contracted VSMC by NO ([2]; CD47 null VSMC): absent
contractile response to S1P ([2]; TSP1 null murine VSMC): increased the contractile response of TSP1 null cells to S1P
relaxation of pre-contracted VSMC by NO ([2]; wild type cells): completely inhibited
